For one assay, the target named is T1, human TRPC6 (Homo sapiens, UniProt Q9Y210).
T1 construct: expressed in transfected cells
T1 sequence (Q9Y210 1-931): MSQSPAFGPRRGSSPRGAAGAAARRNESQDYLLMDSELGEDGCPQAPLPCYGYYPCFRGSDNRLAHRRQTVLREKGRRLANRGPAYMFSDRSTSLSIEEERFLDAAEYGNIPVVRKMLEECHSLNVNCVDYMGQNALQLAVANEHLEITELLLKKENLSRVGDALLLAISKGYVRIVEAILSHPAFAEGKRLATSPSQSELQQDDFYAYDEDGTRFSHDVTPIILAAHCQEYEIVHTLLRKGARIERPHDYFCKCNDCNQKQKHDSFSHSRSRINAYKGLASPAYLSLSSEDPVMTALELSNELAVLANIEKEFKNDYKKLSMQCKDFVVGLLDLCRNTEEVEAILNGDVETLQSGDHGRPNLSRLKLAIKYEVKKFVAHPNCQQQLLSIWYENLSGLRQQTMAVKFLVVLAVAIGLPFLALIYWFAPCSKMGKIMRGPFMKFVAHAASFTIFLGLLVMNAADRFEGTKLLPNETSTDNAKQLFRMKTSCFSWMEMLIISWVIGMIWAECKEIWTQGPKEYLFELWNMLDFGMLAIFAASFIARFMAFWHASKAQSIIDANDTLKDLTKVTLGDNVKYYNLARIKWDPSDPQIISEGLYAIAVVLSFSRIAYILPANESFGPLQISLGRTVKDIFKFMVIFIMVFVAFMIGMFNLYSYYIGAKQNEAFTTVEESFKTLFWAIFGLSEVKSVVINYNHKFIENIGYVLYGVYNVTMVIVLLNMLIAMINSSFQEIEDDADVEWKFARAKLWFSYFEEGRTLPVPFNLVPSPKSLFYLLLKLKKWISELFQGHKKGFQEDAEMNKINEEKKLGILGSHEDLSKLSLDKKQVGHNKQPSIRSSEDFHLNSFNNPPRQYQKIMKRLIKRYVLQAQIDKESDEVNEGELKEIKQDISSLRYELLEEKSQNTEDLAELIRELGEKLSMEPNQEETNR
The assay is described as follows: High Throughput Screening Assay Method 1 (FLIPR membrane potential dye, OAG activation, HEK293 cells expressing human TRPC6). The class given is cell-based. The conditions noted are these: antagonist effect against human TRPC6, 60 μM OAG, read-out: Fluorescence TRPC6 IC50. From the text: This screening assay measures TRPC6 (transient receptor potential cation channel, subfamily C, member 6) ion channel activation via addition either of the commercially available DAG ligand analogue OAG (1-oleoyl-2-acetyl-sn-glycerol) or of the TRPC6 agonist 1-[1-(4,5,6,7,8-pentahydrocyclohepta[2,1-d]thiophen-2-ylcarbonyl)-4-piperidyl]-3-hydrobenzimidazol-2-one (GSK1702934A). The assay utilizes a FLIPR membrane potential (FMP) dye from Molecular Devices, which is a voltage sensitive indicator with a fluorescent quencher. Changes in membrane potential as measured by the fluorescent signal increase during membrane depolarization provide a measurement of channel activity.
The commercially available HEK293 cell line expressing human TRPC6 channel (Axxam/PerkinElmer) is scaled up in bulk and frozen in liquid nitrogen. Frozen cell stocks are thawed and re-suspended in culture media as recommended by the manufacturer supplemented with 0.5 mg/ml of geneticin to promote retention of the TRPC6 construct. Cells are plated at a density of 15,000 cells/well in Greiner 384 well poly-D-lysine coated black clear bottom plates, and incubated for 18-20 h at 37° C. and 5% CO2. To initiate the assay, the growth media is removed using a plate washer and 25 ul of a FMP dye mix is added to each well. The 4× stock FMP dye from the manufacturer is diluted 1× with assay buffer (low calcium Tyrode's assay buffer: 130 mM NaCl, 5 mM KCl, 0.15 mM CaCl2), 1 mM MgCl2, 5 mM NaHCO3, 20 mM HEPES pH 7.4) containing 36 μM BAPTA/AM. The cells are incubated at room temperature (19-22° C.) for 30 minutes. For the screening assay, 5 uL of diluted compound stock is added to each well and incubated for 15 minutes at room temperature (19-22° C.). Using the Hamamatsu FDSS6000 or FDSS7000, 10 uL of the synthetic, membrane permeant analog of 1,2 diacylglycerol (DAG), 1-oleoyl-2-acetoyl-n-glycerol (OAG), is added and fluorescent readings taken every second from 50 seconds to 3 minutes. […] Controls and blanks consisted of HEK293 TRPC6 cells that are exposed to OAG. A reference inhibitor added along with the test compound is included as part of the blanks. This inhibitor suppresses the TRPC6 channel activation. These controls set the screening window, and “hits” are defined as those compounds inhibiting the membrane depolarization caused by OAG by at least 50%. IC50 values are determined for compounds that meet these criteria by titrating compound stock at a final starting concentration of 30 μM using a 3-fold serial dilution for 11 points. Curves are generated by fitting each data set to a four-parameter logistic equation using nonlinear regression.
Usually IC50 stands for the concentration that gives 50% inhibition. Regarding `Nc1ccc(N2CCN(C(=O)c3ccc(Oc4ccccc4)cc3)CC2)cn1` [Compound 15, 5-[4-(4-phenoxybenzoyl)piperazin-1-yl]pyridin-2-amine], the concentration for half-maximal inhibition (IC50) turned out to be 422 nM. Regarding `Nc1ccc(N2CCN(C(=O)c3ccc(Oc4ccc(C(F)(F)F)c(F)c4)cc3)CC2)nn1` [Compound 22, 6-(4-{4-[3-fluoro-4-(trifluoromethyl)phenoxy]benzoyl}piperazin-1-yl)pyridazin-3-amine], the IC50 amounted to 8880 nM. Same read-out and setting: the result for `Nc1ccc(N2CCN(C(=O)c3ccc(Oc4ccc(OC(F)(F)F)cc4)cc3)CC2)nn1` [Compound 21, 6-(4-{4-[4-(trifluoromethoxy)phenoxy]benzoyl}piperazin-1-yl)pyridazin-3-amine] reads 191 nM; that for `Nc1ccc(N2CCN(C(=O)c3ccc(Oc4ccccc4)cc3)CC2)nn1` [Compound 24, 6-[4-(4-phenoxybenzoyl)piperazin-1-yl]pyridazin-3-amine], 199 nM; that for `Nc1ccc(C2CCN(C(=O)c3ccc(Oc4ccc(F)cc4)cc3)CC2)nn1` [Compound 10, 6-{1-[4-(4-fluorophenoxy)benzoyl]piperidin-4-yl}pyridazin-3-amine], 75 nM.

Turning to `CC(C)c1ccc(Oc2ccc(C(=O)N3CCC(c4ccc(N)nn4)CC3)cc2)cc1` [Compound 17, 6-(1-{4-[4-(propan-2-yl)phenoxy]benzoyl}piperidin-4-yl)pyridazin-3-amine], the half-inhibitory concentration (IC50) came to 2190 nM. For the molecule `Nc1ccc(C2CCN(C(=O)c3ccc(Oc4ccc(Cl)cc4)cc3)CC2)nn1` [Compound 13, 6-{1-[4-(4-chlorophenoxy)benzoyl]piperidin-4-yl}pyridazin-3-amine], the IC50 was found to be 266 nM. Consider `Nc1ccc(N2CCN(C(=O)c3ccc(Oc4ccc(C(F)(F)F)cc4)cc3)CC2)cn1` [Compound 19, 5-(4-{4-[4-(trifluoromethyl)phenoxy]benzoyl}piperazin-1-yl)pyridin-2-amine], for which the concentration for half-maximal inhibition (IC50) turned out to be 1330 nM. In the case of `Nc1ccc(C2CCN(C(=O)c3ccc(Oc4ccc(OC(F)(F)F)cc4)cc3)CC2)nn1` [Compound 4, 6-(1-{4-[4-(trifluoromethoxy)phenoxy]benzoyl}piperidin-4-yl)pyridazin-3-amine], the half-maximal inhibitory concentration (IC50) amounted to 351 nM.

With `Nc1ccc(C2CCN(C(=O)c3ccc(Oc4ccc(C(F)(F)F)cc4)cc3)CC2)nn1` [Compound 2, 6-(1-{4-[4-(trifluoromethyl)phenoxy]benzoyl}piperidin-4-yl)pyridazin-3-amine], the IC50 came to 504 nM.

`CCc1ccc(Oc2ccc(C(=O)N3CCN(c4ccc(N)nc4)CC3)cc2)cc1` [Compound 14, 5-{4-[4-(4-ethylphenoxy)benzoyl]piperazin-1-yl}pyridin-2-amine]: the IC50 worked out at 324 nM. The same measure, in the same setting: next, `CC(C)c1ccc(Oc2ccc(C(=O)N3CCN(c4ccc(N)nn4)CC3)cc2)cc1` [Compound 18, 6-(4-{4-[4-(propan-2-yl)phenoxy]benzoyl}piperazin-1-yl)pyridazin-3-amine]: 1310 nM; `Nc1ccc(C2CCN(C(=O)c3ccc(Oc4ccc(C5CC5)cc4)cc3)CC2)nn1` [Compound 12, 6-{1-[4-(4-cyclopropylphenoxy)benzoyl]piperidin-4-yl}pyridazin-3-amine]: 400 nM.

In the case of `CC(=O)c1ccc(Oc2ccc(C(=O)N3CCC(c4ccc(N)nn4)CC3)cc2)cc1` [Compound 16, 1-(4-{4-[4-(6-aminopyridazin-3-yl)piperidine-1-carbonyl]phenoxy}phenyl)ethan-1-one], the IC50 amounted to 2070 nM. On to `Cc1ccc(Oc2ccc(C(=O)N3CCC(c4ccc(N)nn4)CC3)cc2)cc1` [Compound 5, 6-{1-[4-(4-methylphenoxy)benzoyl]piperidin-4-yl}pyridazin-3-amine], for which the IC50 was 372 nM.

As for `Nc1ccc(N2CCN(C(=O)c3ccc(Oc4ccc5c(c4)OCO5)cc3)CC2)nn1` [Compound 8, 6-{4-[4-(2H-1,3-benzodioxol-5-yloxy)benzoyl]piperazin-1-yl}pyridazin-3-amine], the IC50 was 1230 nM. For the molecule `CCc1ccc(Oc2ccc(C(=O)N3CCN(c4ccc(N)nn4)CC3)cc2)cc1` [Compound 20, 6-{4-[4-(4-ethylphenoxy)benzoyl]piperazin-1-yl}pyridazin-3-amine], the IC50 amounted to 1160 nM.

As for `Nc1ccc(N2CCN(C(=O)c3ccc(Oc4ccc(Cl)cc4)cc3)CC2)nn1` [Compound 11, 6-{4-[4-(4-chlorophenoxy)benzoyl]piperazin-1-yl}pyridazin-3-amine], the IC50 turned out to be 1040 nM.

A further assay deals with PASMC.
Assay: not given
The settings on record: cited from earlier work.
For `COc1ccccc1Oc1c(NS(=O)(=O)c2ccc(C(C)(C)C)cc2)nc(-c2ncccn2)nc1OCCO` [bosentan], the “proliferation of PASMC” value is given as “decreases proliferation”.

For the next assay, the system named is TRPC6.
Assay: not given
The settings on record: lung tissue of IPAH patients; cited from earlier work.
Consider `COc1ccccc1Oc1c(NS(=O)(=O)c2ccc(C(C)(C)C)cc2)nc(-c2ncccn2)nc1OCCO` [bosentan], for which the “expression of TRPC6” value is listed as “decreases expression of TRPC6”.

The record behind these values is patent publication US11370771B2, “Inhibitors of TRPC6” (Boehringer Ingelheim International GmbH, priority 2018, dated 2022).
